Values after ≈ are worked out from the molar mass of the structure shown. “Also recorded” adds a separate entry of the source. Blank lines part the entries; values can stand above or below the compound they belong to.
Legend:
WDR5 = WDR5 (Homo sapiens, UniProt P61964); test: TR-FRET competition assay against MLL1-derived 10-mer-Thr-FAM peptide probe; type: binding
K562 = test: Cell proliferation assay; type: cell-based; details: Homo sapiens, K562, 120 h, read-out: Cell Proliferation Assays GI50 (nM) K562
[1] = Clinical observations during mouse PK studies; type: in vivo; details: CD-1 mice; for tolerability / clinical signs: 3 mg/kg iv and 10 mg/kg po
MV4:11 cancer cells = details: cited from earlier work
MV4:11 mouse xenograft = details: ip (DDO-2093) and po (DDO-2213) dosing; cited from earlier work
MV4:11 = test: Cell proliferation assay; type: cell-based; details: GI50,K562/GI50,MV4:11
Kinetic solubility assay = type: physicochemical; details: phosphate-buffered saline, pH 7.4
[2] = Microsomal intrinsic clearance assay; type: in vitro ADME; details: rat, pooled liver microsomes
[3] = In vivo pharmacokinetic studies; parameters: species or system CD-1 mice; details: for AUC(0-inf) / Vd / clearance / bioavailability / Cmax / half-life: male, CD-1, mouse, plasma
mouse models = details: cited from earlier work

SMILES: CCc1nccn1Cc1cc2c(c(-c3cn(C)nc3C(F)(F)F)c1)CCN(Cc1cc(OC)cc(OC)c1)C2=O [Compound 21, 2-(3,5-Dimethoxybenzyl)-7-((2-ethyl-1H-imidazol-1-yl)methyl)-5-(1-methyl-3-(trifluoromethyl)-1H-pyrazol-4-yl)-3,4-dihydroisoquinolin-1(2H)-one]
- Ki (WDR5): 0.022 ± 0.001 nM

- GI50 (K562): 16000 ± 3100 nM
SMILES: COc1cc(CN2CCc3c(cc(Cn4ccnc4C(C)C)cc3-c3cn(C)nc3C(F)(F)F)C2=O)cc(OC)c1 [Compound 22, 2-(3,5-Dimethoxybenzyl)-7-((2-isopropyl-1H-imidazol-1-yl)methyl)-5-(1-methyl-3-(trifluoromethyl)-1H-pyrazol-4-yl)-3,4-dihydroisoquinolin-1(2H)-one]

SMILES: CCn1cc(-c2cc(Cn3ccnc3)cc3c2CCN([C@H](c2cc(OC)ccn2)C2CC2)C3=O)c(C(F)(F)F)n1 [Compound 40, (S)-7-((1H-Imidazol-1-yl)methyl)-2-(cyclopropyl(4-methoxypyridin-2-yl)methyl)-5-(1-ethyl-3-(trifluoromethyl)-1H-pyrazol-4-yl)-3,4-dihydroisoquinolin-1(2H)-one]
- tolerability / clinical signs [1]: behaved normally during the study and showed no adverse effects

SMILES: Cc1c(F)c(N)cc(C(=O)Nc2cc(-n3cc(C(=O)NCCCN4CCOCC4)nn3)ccc2N2CCN(C)CC2)c1Cl [DDO-2093]
- GI50 (MV4:11 cancer cells): ~10000 nM
- in vivo tumor growth inhibition (MV4:11 mouse xenograft): marginal in vivo tumor growth inhibition

SMILES: CN1CCN(c2cc(F)c(-c3ccc(NC(=O)N(C)C)cc3)cc2Nc2ncnc(Cl)c2N)CC1 [DDO-2213]
- GI50 (MV4:11 cancer cells): ~10000 nM
- in vivo tumor growth inhibition (MV4:11 mouse xenograft): marginal in vivo tumor growth inhibition

SMILES: COc1cc(CN2CCc3c(cc(Cn4ccnc4C(F)F)cc3-c3cn(C)nc3C(F)(F)F)C2=O)cc(OC)c1 [Compound 24, 7-((2-(Difluoromethyl)-1H-imidazol-1-yl)methyl)-2-(3,5-dimethoxybenzyl)-5-(1-methyl-3-(trifluoromethyl)-1H-pyrazol-4-yl)-3,4-dihydroisoquinolin-1(2H)-one]
- Selectivity K562/MV4:11 (MV4:11): >3

SMILES: CCn1cc(-c2cc(Cn3ccnc3)cc3c2CCN([C@@H](C)c2cc(OC)ccn2)C3=O)c(C(F)(F)F)n1 [Compound 38, (S)-7-((1H-Imidazol-1-yl)methyl)-5-(1-ethyl-3-(trifluoromethyl)-1H-pyrazol-4-yl)-2-(1-(4-methoxypyridin-2-yl)ethyl)-3,4-dihydroisoquinolin-1(2H)-one]
- Ki (WDR5): < 0.02 nM
- Selectivity K562/MV4:11 (MV4:11): 200
- GI50 (K562): 1900 ± 1800 nM
- solubility kinetic at 1 h (Kinetic solubility assay): 86 µM (≈ 45.1 µg/mL)
- half-life at 1 μM [2]: 0.367 h
- microsomal CLint at 1 μM [2]: 31 µL/min/mg
- AUC(0-inf) ([3]; iv, 3 mg/kg): 707 ng·h/mL
- Vd ([3]; iv, 3 mg/kg): 2.3 L/kg
- clearance ([3]; iv, 3 mg/kg): 76 mL/min/kg
- bioavailability ([3]; oral, 10 mg/kg): 73%
- AUC(0-inf) ([3]; po, 10 mg/kg): 1710 ng·h/mL
- Cmax ([3]; po, 10 mg/kg): 2010 ng/mL
- half-life ([3]; po, 10 mg/kg): 1.2 h
- tolerability / clinical signs [1]: behaved normally during the study and showed no adverse effects

SMILES: COc1cc(CN2CCc3c(cc(Cn4ccn(C)c4=N)cc3-c3ccc(F)cc3C)C2=O)cc(OC)c1 [Compound 1]
- oral exposure ([3]; CD-1 mice, 3 mg/kg po): below the limit of quantitation
- clearance ([3]; iv, 3 mg/kg): 78 mL/min/kg
- acute toxicity signs ([1]; 3 mg/kg iv, 3 mg/kg): signs of severe acute toxicity; also recorded: lethality

SMILES: CCn1cc(-c2cc(Cn3ccnc3C)cc3c2CCN([C@@H](C)c2cc(OC)ccn2)C3=O)c(C(F)(F)F)n1 [Compound 34, (S)-5-(1-Ethyl-3-(trifluoromethyl)-1H-pyrazol-4-yl)-2-(1-(4-methoxypyridin-2-yl)ethyl)-7-((2-methyl-1H-imidazol-1-yl)methyl)-3,4-dihydroisoquinolin-1(2H)-one]
- clearance ([3]; iv, 3 mg/kg): 118 mL/min/kg
- tolerability / clinical signs [1]: behaved normally during the study and showed no adverse effects

SMILES: CCn1cc(-c2cc(Cn3ccnc3C)cc3c2CCN([C@H](c2cc(OC)ccn2)C2CC2)C3=O)c(C(F)(F)F)n1 [Compound 36, (S)-2-(Cyclopropyl(4-methoxypyridin-2-yl)methyl)-5-(1-ethyl-3-(trifluoromethyl)-1H-pyrazol-4-yl)-7-((2-methyl-1H-imidazol-1-yl)methyl)-3,4-dihydroisoquinolin-1(2H)-one]
- Ki (WDR5): < 0.02 nM
- GI50 (K562): 2600 ± 1500 nM
- solubility kinetic at 1 h (Kinetic solubility assay): 65 µM (≈ 36.7 µg/mL)
- AUC(0-inf) ([3]; iv, 3 mg/kg): 1240 ng·h/mL
- Vd ([3]; iv, 3 mg/kg): 1.6 L/kg
- clearance ([3]; iv, 3 mg/kg): 41 mL/min/kg
- AUC(0-inf) ([3]; po, 10 mg/kg): 508 ng·h/mL
- Cmax ([3]; po, 10 mg/kg): 652 ng/mL
- bioavailability ([3]; po, 10 mg/kg): 12%
- half-life ([3]; po, 10 mg/kg): 1.4 h
- tolerability / clinical signs [1]: behaved normally during the study and showed no adverse effects

SMILES: COc1cc(CN2CCc3c(cc(Cn4cccn4)cc3-c3cn(C)nc3C(F)(F)F)C2=O)cc(OC)c1 [Compound 17, 7-((1H-Pyrazol-1-yl)methyl)-2-(3,5-dimethoxybenzyl)-5-(1-methyl-3-(trifluoromethyl)-1H-pyrazol-4-yl)-3,4-dihydroisoquinolin-1(2H)-one]
- Selectivity K562/MV4:11 (MV4:11): >1

SMILES: Cc1ncsc1-c1ccc([C@H](C)NC(=O)[C@@H]2C[C@@H](O)CN2C(=O)[C@@H](NC(=O)CNC(=O)c2ccc(F)c(-c3ccc(N4C[C@@H](C)N(C)[C@@H](C)C4)c(NC(=O)c4c[nH]c(=O)cc4C(F)(F)F)c3)c2)C(C)(C)C)cc1 [MS67]
- in vivo tumor growth inhibition (mouse models): demonstrated in vivo tumor growth inhibition

SMILES: COc1cc(CN2CCc3c(cc(Cn4cccc4)cc3-c3cn(C)nc3C(F)(F)F)C2=O)cc(OC)c1 [Compound 18, 7-((1H-Pyrrol-1-yl)methyl)-2-(3,5-dimethoxybenzyl)-5-(1-methyl-3-(trifluoromethyl)-1H-pyrazol-4-yl)-3,4-dihydroisoquinolin-1(2H)-one]
- Selectivity K562/MV4:11 (MV4:11): >2

SMILES: COc1cc(CN2CCc3c(cc(Cn4cnnc4)cc3-c3cn(C)nc3C(F)(F)F)C2=O)cc(OC)c1 [Compound 19, 7-((4H-1,2,4-Triazol-4-yl)methyl)-2-(3,5-dimethoxybenzyl)-5-(1-methyl-3-(trifluoromethyl)-1H-pyrazol-4-yl)-3,4-dihydroisoquinolin-1(2H)-one]
- Selectivity K562/MV4:11 (MV4:11): >2

SMILES: CCn1cc(-c2cc(Cn3ccnc3C)cc3c2CCN([C@H](c2cc(C)ccn2)C2CC2)C3=O)c(C(F)(F)F)n1 [Compound 37, (S)-2-(Cyclopropyl(4-methylpyridin-2-yl)methyl)-5-(1-ethyl-3-(trifluoromethyl)-1H-pyrazol-4-yl)-7-((2-methyl-1H-imidazol-1-yl)methyl)-3,4-dihydroisoquinolin-1(2H)-one]
- clearance ([3]; iv, 3 mg/kg): 25 mL/min/kg
- tolerability / clinical signs [1]: behaved normally during the study and showed no adverse effects

SMILES: CCn1cc(-c2cc(Cn3ccnc3)cc3c2CCN([C@H](c2cc(C)ccn2)C2CC2)C3=O)c(C(F)(F)F)n1 [Compound 41, (S)-7-((1H-Imidazol-1-yl)methyl)-2-(cyclopropyl(4-methylpyridin-2-yl)methyl)-5-(1-ethyl-3-(trifluoromethyl)-1H-pyrazol-4-yl)-3,4-dihydroisoquinolin-1(2H)-one]
- Ki (WDR5): < 0.02 nM
- Selectivity K562/MV4:11 (MV4:11): 290
- GI50 (K562): 3700 ± 3100 nM
- solubility kinetic at 1 h (Kinetic solubility assay): 60 µM (≈ 32.1 µg/mL)
- AUC(0-inf) ([3]; iv, 3 mg/kg): 1950 ng·h/mL
- Vd ([3]; iv, 3 mg/kg): 1.6 L/kg
- clearance ([3]; iv, 3 mg/kg): 26 mL/min/kg
- bioavailability ([3]; oral, 10 mg/kg): 61%
- AUC(0-inf) ([3]; po, 10 mg/kg): 3980 ng·h/mL
- Cmax ([3]; po, 10 mg/kg): 2080 ng/mL
- half-life ([3]; po, 10 mg/kg): 1.3 h
- tolerability / clinical signs [1]: behaved normally during the study and showed no adverse effects
